19 compounds from US9266908B2, “Inhibitors of arginase and their therapeutic applications” (MARS, INCORPORATED, priority 2011, dated 2016) can be followed below.

For one test, the target named is T1, human-Arginase-1 (Homo sapiens, UniProt P05089).
T1 construct: expressed in transfected cells; host or cells: CHOK cells
T1 sequence (P05089 1-322): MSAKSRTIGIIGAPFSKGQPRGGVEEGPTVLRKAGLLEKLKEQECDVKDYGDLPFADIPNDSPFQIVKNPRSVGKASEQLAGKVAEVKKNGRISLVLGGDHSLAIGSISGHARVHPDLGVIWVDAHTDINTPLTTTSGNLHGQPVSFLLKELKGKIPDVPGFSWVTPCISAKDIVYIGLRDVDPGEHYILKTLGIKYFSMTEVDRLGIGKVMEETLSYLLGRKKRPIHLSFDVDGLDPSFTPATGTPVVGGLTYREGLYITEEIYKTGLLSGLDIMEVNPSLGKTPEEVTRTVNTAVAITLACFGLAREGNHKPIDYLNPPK
As to the kind of experiment: Urea production in CHOK cells stably transfected with human-Arginase-1. As to conditions: IC50 class, 5 mM arginine, 24 hours, read-out: CHOK Cell. The class given is cell-based. The method, then: Table 3 also provides CHOK cell based IC50 values for illustrative arginase inhibitors. IC50 values were determined by measuring the production of urea in CHOK cells stably transfected with human-Arginase-1.
Briefly, CHOK cells were stably transfected with human-arginase-1. To determiner the IC50 values for compounds in accordance with the present invention, parental CHOK cells and arginase-1 stably transfected cells were plated in a 96 well plate. Cells were plated using 200 μl of complete growth medium and incubated overnight at 37° C.
Media from each of the wells containing cells was first removed and growth media supplemented with arginine at a concentration of 5 mM was added to each well. The test compounds were dissolved in PBS buffer to the desired concentration and added to appropriate wells. The plate was then incubated at 37° C. for 24 hours. After 24 hours the plates were spun down at 3000 RPM for 5 min and 50 μl of the media were transferred to a new plate.
An aqueous solution of o-phthaldehyde, Brij, sulfuric acid, primaquine diphosphate and boric acid was added to each well and the plate was incubated for 10-15 minutes. The urea concentration in each well was determined by measuring the optical density at 520-530 nanometers using a standard curve. The IC50 values were calculated by measuring urea production at various concentrations of the inventive arginase inhibitors after subtracting the value related to the concentration of urea in control wells.

A further test deals with T2, human arginase I (ARG I) (Homo sapiens, UniProt P05089).
T2 sequence (P05089 1-322): T1 sequence (P05089 1-322)
As to the kind of experiment: Inhibition of arginase I, spectrophotometric urea assay at 530 nm.

A further test concerns the target T3, arginase II (ARG II) (Homo sapiens, UniProt P78540).
T3 sequence (P78540 23-354): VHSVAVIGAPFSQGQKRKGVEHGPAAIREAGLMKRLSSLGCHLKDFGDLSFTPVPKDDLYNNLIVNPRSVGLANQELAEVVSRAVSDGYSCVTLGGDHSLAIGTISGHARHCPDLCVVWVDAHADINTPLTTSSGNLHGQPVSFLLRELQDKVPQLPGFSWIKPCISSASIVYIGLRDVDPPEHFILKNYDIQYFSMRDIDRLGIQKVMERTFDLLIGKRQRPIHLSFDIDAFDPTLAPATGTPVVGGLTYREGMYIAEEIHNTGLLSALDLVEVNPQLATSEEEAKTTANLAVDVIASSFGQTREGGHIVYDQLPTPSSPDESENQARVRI
The test is described as follows: Inhibition of arginase II, spectrophotometric urea assay at 530 nm.

Procedure for arginase II (ARG II): (§1) Inhibition of arginase I (ARG I) and arginase II (ARG II) by the inventive compounds is followed spectrophotometrically at 530 nm. […] Solutions of arginase I and II are prepared in 100 mM sodium phosphate buffer, pH 7.4 containing 1 mg/ml of OVA to give an arginase stock solution at a final concentration of 100 ng/ml.
(§2) To each well of a 96-well microtiter plate is add 40 μl of enzyme, 10 μl of an inventive compound and 10 μl of enzyme substrate (L-arginine+ manganese sulfate). For wells that are used as positive controls, only the enzyme and its substrate are added, while wells used as negative controls contain only manganese sulfate.
(§3) After incubating the microtiter plate at 37° C. for 60 minutes, 150 μl of a urea reagent obtained by combining equal proportions (1:1) of reagents A and B is added to each well of the microtiter plate to stop the reaction. The urea reagent is made just before use by combining Reagent A (10 mM o-phthaldialdehyde, and 0.4% polyoxyethylene (23) lauryl ether (w/v) in 1.8 M sulfuric acid) with Reagent B (1.3 mM primaquine diphosphate, 0.4% polyoxyethylene (23) lauryl ether (w/v), 130 mM boric acid in 3.6 M sulfuric acid). After quenching the reaction mixture, the microtiter plate is allowed to stand for an additional 10 minutes at room temperature to allow color development. […] The normalized OD is then used to generate a dose-response curve by plotting the normalized OD values against log [concentration] and using regression analysis to compute the IC50 values.
Procedure for human arginase I (ARG I): as §1, §2, §3

In the case of `NC(CCCCB(O)O)(C(=O)O)[C@H]1C[C@@H](NC2CCC(c3ccccc3)CC2)C1` (mixture of isomers) [Example 47, (S)-2-amino-6-borono-2-((1s,3R)-3-(4-phenylcyclohexylamino)cyclobutyl)hexanoic acid], the IC50 on human-Arginase-1 fell in the range of 26000 to 100000 nM; at human arginase I (ARG I), 26 to 100 nM; at arginase II (ARG II), 0.1 to 25 nM.
For `NC(CCCCB(O)O)(C(=O)O)[C@H]1C[C@@H](NCc2cccc(-c3ccccc3)c2F)C1` (mixture of isomers) [Example 48, (S)-2-amino-6-borono-2-((1s,3R)-3-((2-fluorobiphenyl-3-yl)methylamino)cyclobutyl)hexanoic acid], the results for the IC50 on human-Arginase-1, against human arginase I (ARG I) and at arginase II (ARG II) were 26000 to 100000 nM, 26 to 100 nM and 0.1 to 25 nM, respectively.
In the case of `NC(CCCCB(O)O)(C(=O)O)[C@H]1C[C@@H](NCc2ccc(-c3ccc(Cl)cc3)c(F)c2F)C1` (mixture of isomers) [Example 50, (S)-2-amino-6-borono-2-((1s,3R)-3-((4′-chloro-2,3-difluorobiphenyl-4-yl)methylamino)cyclobutyl)hexanoic acid], the IC50 was 1000 to 25000 nM on human-Arginase-1, 0.1 to 25 nM on human arginase I (ARG I) and 26 to 100 nM on arginase II (ARG II).
Turning to `NC(CCCCB(O)O)(C(=O)O)[C@H]1C[C@@H](NCc2ccc(-c3ccc(Cl)cc3)c(F)c2)C1` (mixture of isomers) [Example 51, (S)-2-amino-6-borono-2-((1s,3R)-3-((4′-chloro-2-fluorobiphenyl-4-yl)methylamino)cyclobutyl)hexanoic acid], the results for the IC50 on human-Arginase-1, on human arginase I (ARG I) and against arginase II (ARG II) were 26000 to 100000 nM, 26 to 100 nM and 0.1 to 25 nM, respectively.
Taken in the same sequence, the figures for `Cc1ccc(F)c(-c2ccc(CN[C@H]3C[C@@H](C(N)(CCCCB(O)O)C(=O)O)C3)cc2F)c1` (mixture of isomers) [Example 52, (S)-2-amino-6-borono-2-((1s,3R)-3-((2,2′-difluoro-5′-methylbiphenyl-4-yl)methylamino)cyclobutyl)hexanoic acid] were 1000 to 25000 nM, 0.1 to 25 nM and 0.1 to 25 nM.
Taken in the same sequence, the figures for `NC(CCCCB(O)O)(C(=O)O)[C@H]1C[C@@H](NCc2ccc(-c3ccc(F)cc3)c(F)c2)C1` (mixture of isomers) [Example 53, (S)-2-amino-6-borono-2-((1s,3R)-3-((2,4′-difluorobiphenyl-4-yl)methylamino)cyclobutyl)hexanoic acid] were 26000 to 100000 nM, 0.1 to 25 nM and 26 to 100 nM.
On to `NC(CCCCB(O)O)(C(=O)O)[C@H]1C[C@@H](NCc2ccc(-c3ccccc3F)c(F)c2)C1` (mixture of isomers) [Example 54, (S)-2-amino-6-borono-2-((1s,3R)-3-((2,2′-difluorobiphenyl-4-yl)methylamino)cyclobutyl)hexanoic acid], for which the IC50 at human-Arginase-1 fell in the range of 26000 to 100000 nM; on human arginase I (ARG I) it was 26 to 100 nM; on arginase II (ARG II) it was 26 to 100 nM.
For the compound `NC(CCCCB(O)O)(C(=O)O)[C@H]1C[C@@H](NCc2ccc(-c3ccc(F)cc3F)c(F)c2)C1` (mixture of isomers) [Example 55, (S)-2-amino-6-borono-2-((1s,3R)-3-((2,2′,4′-trifluorobiphenyl-4-yl)methylamino)cyclobutyl)hexanoic acid], the IC50 at human-Arginase-1 is 26000 to 100000 nM; at human arginase I (ARG I) it was 26 to 100 nM; on arginase II (ARG II), 26 to 100 nM.
Turning to `NC(CCCCB(O)O)(C(=O)O)[C@H]1C[C@@H](NCc2ccc(Cc3ccccc3)cc2)C1` (mixture of isomers) [Example 57, (S)-2-amino-2-((1s,3R)-3-(4-benzylbenzylamino)cyclobutyl)-6-boronohexanoic acid], the IC50 at human-Arginase-1 lay in the range of 26000 to 100000 nM; against human arginase I (ARG I), 26 to 100 nM; against arginase II (ARG II), 26 to 100 nM.
As for `NC(CCCCB(O)O)(C(=O)O)[C@H]1C[C@@H](NCc2c(F)cc(-c3ccc(Cl)cc3)cc2F)C1` (mixture of isomers) [Example 58, (S)-2-amino-6-borono-2-((1s,3R)-3-((4′-chloro-3,5-difluorobiphenyl-4-yl)methylamino)cyclobutyl)hexanoic acid], the IC50 is 1000 to 25000 nM at human-Arginase-1, 26 to 100 nM at human arginase I (ARG I) and 26 to 100 nM against arginase II (ARG II).
In the case of `NC(CCCCB(O)O)(C(=O)O)[C@H]1C[C@@H](NCC2CCN(c3ccc(C(F)(F)F)cc3)CC2)C1` (mixture of isomers) [Example 60, (S)-2-amino-6-borono-2-((1s,3R)-3-((1-(4-(trifluoromethyl)phenyl)piperidin-4-yl)methylamino)cyclobutyl)hexanoic acid], the IC50 lay in the range of 26000 to 100000 nM on human-Arginase-1, 0.1 to 25 nM against human arginase I (ARG I) and 26 to 100 nM against arginase II (ARG II).
Turning to `NC(CCCCB(O)O)(C(=O)O)[C@H]1CC[C@H](NCc2ccc(-c3ccccc3)cc2)C1` (stereo in doubt) [Example 43], the IC50 lay within 26000 to 100000 nM on human-Arginase-1, 26 to 100 nM on human arginase I (ARG I) and 26 to 100 nM against arginase II (ARG II).
As to `NC(CCCCB(O)O)(C(=O)O)[C@H]1C[C@@H](NC2Cc3ccccc3C2)C1` (stereo partly drawn) [Example 5, (S)-2-amino-6-borono-2-((1s,3R)-3-(2,3-dihydro-1H-inden-2-ylamino)cyclobutyl)hexanoic acid], the IC50 fell in the range of 1000 to 25000 nM on human-Arginase-1, 0.1 to 25 nM against human arginase I (ARG I) and 26 to 100 nM at arginase II (ARG II).
Turning to `CC(C)(C)c1ccc(CN[C@H]2C[C@@H](C(N)(CCCCB(O)O)C(=O)O)C2)cc1` (stereo partly drawn) [Example 6, (S)-2-amino-6-borono-2-((1s,3R)-3-(4-tert-butylbenzylamino)cyclobutyl)hexanoic acid], the values for the IC50 at human-Arginase-1, against human arginase I (ARG I) and at arginase II (ARG II) were 26000 to 100000 nM, 26 to 100 nM and 26 to 100 nM, respectively.
In the case of `NC(CCCCB(O)O)(C(=O)O)[C@H]1C[C@@H](NCc2cccc(-c3ccc(C(F)(F)F)cc3)c2)C1` (stereo partly drawn) [Example 8, (S)-2-amino-6-borono-2-((1s,3R)-3-((4′-(trifluoromethyl)biphenyl-3-yl)methylamino)cyclobutyl)hexanoic acid], the IC50 fell in the range of 1000 to 25000 nM at human-Arginase-1, 0.1 to 25 nM against human arginase I (ARG I) and 0.1 to 25 nM at arginase II (ARG II).
With `NC(CCCCB(O)O)(C(=O)O)[C@H]1C[C@@H](NCc2cccc(-c3ccc(Cl)cc3)c2)C1` (stereo partly drawn) [Example 9, (S)-2-amino-6-borono-2-((1s,3R)-3-((4′-chlorobiphenyl-3-yl)methylamino)cyclobutyl)hexanoic acid], the IC50 at human-Arginase-1 was 26000 to 100000 nM; at human arginase I (ARG I), 0.1 to 25 nM; against arginase II (ARG II), 0.1 to 25 nM.
`NC(CCCCB(O)O)(C(=O)O)[C@H]1C[C@@H](NCc2ccc(F)c3ccccc23)C1` (stereo partly drawn) [Example 10, (S)-2-amino-6-borono-2-((1s,3R)-3-((4-fluoronaphthalen-1-yl)methylamino)cyclobutyl)hexanoic acid]: the IC50 on human-Arginase-1 fell in the range of 1000 to 25000 nM; at human arginase I (ARG I), 0.1 to 25 nM; on arginase II (ARG II), 0.1 to 25 nM.
On to `NC(CCCCB(O)O)(C(=O)O)[C@H]1C[C@@H](NCc2cccc3c(F)cccc23)C1` (stereo partly drawn) [Example 11, (S)-2-amino-6-borono-2-((1s,3R)-3-((5-fluoronaphthalen-1-yl)methylamino)cyclobutyl)hexanoic acid], for which the IC50 at human-Arginase-1 lay within 1000 to 25000 nM; on human arginase I (ARG I), 0.1 to 25 nM; at arginase II (ARG II) it was 26 to 100 nM.
`NC(CCCCB(O)O)(C(=O)O)[C@H]1C[C@@H](NCc2c3ccccc3cc3ccccc23)C1` (stereo partly drawn) [Example 12, (S)-2-amino-2-((1s,3R)-3-(anthracen-9-ylmethylamino)cyclobutyl)-6-boronohexanoic acid]: the IC50 at human-Arginase-1 was 26000 to 100000 nM; against human arginase I (ARG I), 26 to 100 nM; at arginase II (ARG II), 0.1 to 25 nM.
